In patent publication US20240150377A1, “MODULATORS OF CYSTIC FIBROSIS TRANSMEMBRANE CONDUCTANCE REGULATOR” (VERTEX PHARMACEUTICALS INCORPORATED, priority 2020, published 2024):

Biological target: T1, CFTR (Homo sapiens, UniProt P13569, DEL508-508)
T1 construct: endogenous in cells; host or cells: primary human bronchial epithelial cells from CF subjects (F508del/MF-HBE), differentiated at air-liquid interface
Experiment: HBE2 assay: Ussing chamber assay of CFTR-mediated short-circuit currents
Assay type: cell-based
Details: F508del/MF-HBE cells, 18-24 hours, 20% human serum; for Emax: read-out: HBE2 Max activity (%)
Summary of the method: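 Corrector activity read as CFTR-dependent ISC (μA/cm^2): peak forskolin current minus post-inhibitor steady state. Measured at 37 °C, voltage clamp at 0 mV, on F508del/MF-HBE epithelia grown >14 days air-liquid interface in Ussing chambers.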

[1] = 3 μM corrector, with 44 nM potentiator

T1 sequence (P13569 with tags, fused parts or gaps DEL508-508): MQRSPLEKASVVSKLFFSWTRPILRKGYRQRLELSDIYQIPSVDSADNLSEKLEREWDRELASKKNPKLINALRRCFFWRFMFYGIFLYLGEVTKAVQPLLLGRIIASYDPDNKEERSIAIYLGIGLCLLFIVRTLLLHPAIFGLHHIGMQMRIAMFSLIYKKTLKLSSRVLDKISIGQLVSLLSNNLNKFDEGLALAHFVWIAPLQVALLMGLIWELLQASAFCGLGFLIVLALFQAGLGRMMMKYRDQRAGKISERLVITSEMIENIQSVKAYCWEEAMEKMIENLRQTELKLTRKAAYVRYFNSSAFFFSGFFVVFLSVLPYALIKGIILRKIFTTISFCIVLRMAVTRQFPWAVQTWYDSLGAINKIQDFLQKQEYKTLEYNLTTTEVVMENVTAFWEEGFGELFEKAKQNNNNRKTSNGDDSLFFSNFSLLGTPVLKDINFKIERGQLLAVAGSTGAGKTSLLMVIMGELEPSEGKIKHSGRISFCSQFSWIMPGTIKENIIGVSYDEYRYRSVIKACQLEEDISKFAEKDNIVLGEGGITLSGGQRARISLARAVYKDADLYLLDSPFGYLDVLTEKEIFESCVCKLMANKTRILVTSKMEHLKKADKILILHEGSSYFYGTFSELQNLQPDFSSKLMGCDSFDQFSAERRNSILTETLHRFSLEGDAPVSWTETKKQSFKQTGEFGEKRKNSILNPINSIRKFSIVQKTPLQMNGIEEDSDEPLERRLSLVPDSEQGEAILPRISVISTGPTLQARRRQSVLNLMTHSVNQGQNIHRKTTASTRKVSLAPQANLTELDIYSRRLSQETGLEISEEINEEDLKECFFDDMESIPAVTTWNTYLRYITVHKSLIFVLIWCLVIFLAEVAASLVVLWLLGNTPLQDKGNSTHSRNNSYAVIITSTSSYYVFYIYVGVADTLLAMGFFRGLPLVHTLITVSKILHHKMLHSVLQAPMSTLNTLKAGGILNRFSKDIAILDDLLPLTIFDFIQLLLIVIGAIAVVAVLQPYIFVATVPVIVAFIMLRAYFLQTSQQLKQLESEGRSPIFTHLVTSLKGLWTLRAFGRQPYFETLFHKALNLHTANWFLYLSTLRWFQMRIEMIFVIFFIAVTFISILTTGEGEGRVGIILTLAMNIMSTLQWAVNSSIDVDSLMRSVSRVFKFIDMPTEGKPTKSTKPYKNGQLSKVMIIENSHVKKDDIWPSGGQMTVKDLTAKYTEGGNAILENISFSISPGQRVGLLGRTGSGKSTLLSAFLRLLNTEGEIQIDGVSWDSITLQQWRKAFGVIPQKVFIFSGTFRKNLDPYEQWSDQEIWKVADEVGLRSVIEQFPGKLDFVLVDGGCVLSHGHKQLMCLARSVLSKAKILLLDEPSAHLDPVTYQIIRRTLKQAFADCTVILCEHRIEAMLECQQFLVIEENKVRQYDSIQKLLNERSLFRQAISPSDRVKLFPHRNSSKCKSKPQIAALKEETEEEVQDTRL

SMILES | HBE2 Activity at 3 μM (%) (3 μM, with 44 nM potentiator) | HBE2 Activity at 3 μM (%) [1] | further results
Cc1cccc(C)c1-c1cc2nc(n1)NS(=O)(=O)c1cccc(c1)C(=O)N(Cc1cncc(N(C)C3CCC3)n1)[C@H](CC(C)(C)C)CO2 [Compound 1310, (11R)-12-[[6-[Cyclobutyl(methyl)amino]pyrazin-2-yl]methyl]-6-(2,6-dimethylphenyl)-11-(2,2-dimethylpropyl)-2,2-dioxo-9-oxa-2λ^6-thia-3,5,12,19-tetrazatricyclo[12.3.1.14,8]nonadeca-1(18),4(19),5,7,14,16-hexaen-13-one] | +++ (+++ is >60+) | – | EC50 (with 44 nM potentiator): < 1000 nM; Emax (with 44 nM potentiator): > 60%
COC[C@H]1CCCCN1c1cncc(CN2C(=O)c3cccc(c3)S(=O)(=O)Nc3nc(cc(-c4c(C)cccc4C)n3)OC[C@H]2CCC(C)(C)C)n1 (stereo in doubt) [Compound 1856] | – | +++ (+++ is >60+) | –
Cc1cccc(C)c1-c1cc2nc(n1)NS(=O)(=O)c1cccc(c1)C(=O)N(Cc1cncc(N(C)C3CCC3)n1)[C@H](COC(C)C)CO2 [Compound 1324, (11R)-12-[[6-[Cyclobutyl(methyl)amino]pyrazin-2-yl]methyl]-6-(2,6-dimethylphenyl)-11-(isopropoxymethyl)-2,2-dioxo-9-oxa-2λ^6-thia-3,5,12,19-tetrazatricyclo[12.3.1.14,8]nonadeca-1(18),4(19),5,7,14,16-hexaen-13-one] | – | +++ (+++ is >60+) | –
Cc1cccc(C)c1-c1cc2nc(n1)NS(=O)(=O)c1cccc(c1)C(=O)N(Cc1cncc(N(C)C3CCC3)n1)[C@H](C1CC3(CCC3)C1)CO2 (single isomer, unassigned) [Compound 1320, 12-[[6-[Cyclobutyl(methyl)amino]pyrazin-2-yl]methyl]-6-(2,6-dimethylphenyl)-2,2-dioxo-11-spiro[3.3]heptan-2-yl-9-oxa-2λ^6-thia-3,5,12,19-tetrazatricyclo[12.3.1.14,8]nonadeca-1(18),4(19),5,7,14,16-hexaen-13-one] | +++ (+++ is >60+) | – | EC50 (with 44 nM potentiator): < 1000 nM; Emax (with 44 nM potentiator): > 60%
Cc1cccc(C)c1-c1cc2nc(n1)NS(=O)(=O)c1cccc(c1)C(=O)N(Cc1cncc(N(C)CC(C)C)n1)[C@H](CC(C)C)CO2 [Compound 1713] | – | +++ (+++ is >60+) | –
Cc1cccc(C)c1-c1cc2nc(n1)NS(=O)(=O)c1cccc(c1)C(=O)N(Cc1ncc(N3CCC(C)(C)CC3)cn1)[C@H](CCC1CC1)CO2 [Compound 1311, (11R)-11-(2-Cyclopropylethyl)-6-(2,6-dimethylphenyl)-12-[[5-(4,4-dimethyl-1-piperidyl)pyrimidin-2-yl]methyl]-2,2-dioxo-9-oxa-2^6-thia-3,5,12,19-tetrazatricyclo[12.3.1.14,8]nonadeca-1(18),4(19),5,7,14,16-hexaen-13-one] | +++ (+++ is >60+) | – | –
Cc1cccc(C)c1-c1cc2nc(n1)NS(=O)(=O)c1cccc(c1)C(=O)N(Cc1ncc(OC(C)C)cn1)[C@H](CC1CCC1)[C@@H](C)O2 [Compound 1566] | + (+ is <300)) | – | –
CO[C@@H]1CC[C@@H]1N(C)c1cncc(CN2C(=O)c3cccc(c3)S(=O)(=O)Nc3nc(cc(-c4c(C)cccc4C)n3)OC[C@H]2CC(C)(C)C)n1 (stereo in doubt) [Compound 1610] | – | – | EC50 (with 44 nM potentiator): < 1000 nM; Emax (with 44 nM potentiator): > 60%
Cc1cccc(C)c1-c1cc2nc(n1)NS(=O)(=O)c1cccc(c1)C(=O)N(Cc1cncc(N(C)CCN(C)C(=O)OC(C)C)n1)[C@H](CC(C)(C)C)CO2 [Compound 1662] | +++ (+++ is >60+) | – | –
CCN(CCOC)c1cncc(CN2C(=O)c3cccc(c3)S(=O)(=O)Nc3nc(cc(-c4c(C)cccc4C)n3)OC[C@H]2CC(C)(C)C)n1 [Compound 1580] | +++ (+++ is >60+) | – | EC50 (with 44 nM potentiator): < 1000 nM; Emax (with 44 nM potentiator): > 60%
Cc1cccc(C)c1-c1cc2nc(n1)NS(=O)(=O)c1cccc(c1)C(=O)N(Cc1cnc3cc(C(C)C)n(C)c3n1)[C@H](CC(C)C)CO2 [Compound 1834] | – | +++ (+++ is >60+) | –
Cc1cccc(C)c1-c1cc2nc(n1)NS(=O)(=O)c1cccc(c1)C(=O)N(Cc1cncc(N(C)C3CC4(CC4)C3)n1)[C@H](COC(C)C)CO2 [Compound 1949] | – | +++ (+++ is >60+) | –
CC(C)c1ccccc1-c1cc2nc(n1)NS(=O)(=O)c1cccc(c1)C(=O)N(Cc1cncc(N(C)C3CCC3)n1)[C@H](CC(C)(C)C)CO2 [Compound 1704] | +++ (+++ is >60+) | – | –
Cc1cccc(C)c1-c1cc2nc(n1)NS(=O)(=O)c1cccc(c1)C(=O)N(Cc1cncc(N(C)CC(C)C)n1)[C@H](CCC(C)C)CO2 [Compound 1763] | – | +++ (+++ is >60+) | –
Cc1cccc(C)c1-c1cc2nc(n1)NS(=O)(=O)c1cccc(c1)C(=O)N(Cc1cncc(N3CCCC[C@H]3C)n1)[C@H](CCC(C)(C)C)CO2 [Compound 1725] | – | +++ (+++ is >60+) | EC50 (corrector at a range of concentrations with 44 nM potentiator): < 1000 nM; Emax (with 44 nM potentiator): > 60%
Cc1cccc(C)c1-c1cc2nc(n1)NS(=O)(=O)c1cccc(c1)C(=O)N(Cc1cnc3cc(C(C)C)n(C)c3n1)[C@H](C[C@H]1CCCOC1)CO2 (stereo in doubt) [Compound 1932] | – | +++ (+++ is >60+) | –
CO[C@H]1C[C@H](CN(C)c2cncc(CN3C(=O)c4cccc(c4)S(=O)(=O)Nc4nc(cc(-c5c(C)cccc5C)n4)OC[C@H]3CC(C)(C)C)n2)C1 [Compound 1631] | +++ (+++ is >60+) | – | –
CCC(C)(C)C[C@@H]1COc2cc(-c3c(C)cccc3C)nc(n2)NS(=O)(=O)c2cccc(c2)C(=O)N1Cc1cncc(N2CC[C@H]2C)n1 [Compound 1860] | – | ++ (++ is 30-60%) | –
CCN(C)c1cncc(CN2C(=O)c3cccc(c3)S(=O)(=O)Nc3nc(cc(-c4c(C)cccc4C)n3)OC[C@H]2CCC(C)(C)C)n1 [Compound 1807] | – | +++ (+++ is >60+) | –
Cc1cccc(C)c1-c1cc2nc(n1)NS(=O)(=O)c1cccc(c1)C(=O)N(Cc1cnc3oc(C(C)C)cc3n1)[C@H](CC(C)(C)C)CO2 [Compound 1333, (11R)-6-(2,6-Dimethylphenyl)-11-(2,2-dimethylpropyl)-12-[(6-isopropylfuro[2,3-b]pyrazin-2-yl)methyl]-2,2-dioxo-9-oxa-2λ6-thia-3,5,12,19-tetrazatricyclo[12.3.1.14,8]nonadeca-1(18),4(19),5,7,14,16-hexaen-13-one] | – | +++ (+++ is >60+) | –
Cc1cccc(C)c1-c1cc2nc(n1)NS(=O)(=O)c1cccc(c1)C(=O)N(Cc1cncc(N3CCC[C@@H](C)[C@H]3C)n1)[C@H](CC(C)(C)C)CO2 [Compound 1783] | – | +++ (+++ is >60+) | –
Cc1cccc(C)c1-c1cc2nc(n1)NS(=O)(=O)c1cccc(c1)C(=O)N(Cc1cnc3cc(C(C)C)n(C)c3n1)[C@H](CC1(C)CC1)CO2 [Compound 1831] | – | +++ (+++ is >60+) | –
Cc1cccc(C)c1-c1cc2nc(n1)NS(=O)(=O)c1cccc(c1)C(=O)N(Cc1cncc(N(C)CC(C)C)n1)[C@H](CC1CCCC1)CO2 [Compound 1845] | – | +++ (+++ is >60+) | –
